Format in all cases: in vivo
One test concerns Culex pipiens pallens. The experiment in a line: Test Example 4: mosquito larvae test in treated water. As to conditions: 24 h, read-out: rate of dead pests. As for the experimental part:
0.7 ml of above test solution was added to 100 ml of ion exchanged water (active ingredient concentration: 3.5 ppm). Twenty last-instar larvae of Culex pipiens pallens were set free in the solution. After one day, the number of surviving and dead Culex pipiens pallens was examined and the rate of dead pests was calculated.

The subject of a further test is Musca domestica. The experiment in a line: Test Example 2: filter paper/sucrose bait test against housefly imagoes. Conditions: read-out: rate of dead pests. As for the experimental part:
On the bottom of a polyethylene cup having a diameter of 5.5 cm, a filter paper having the same diameter was laid, and 0.7 ml of the above test solution was added dropwise on the filter paper, followed by putting 30 mg of sucrose on it uniformly as a bait. Ten female Musca domestica imagoes were set free in the polyethylene cup and covered it with a lid. After 24 hours, the number of surviving and dead Musca domestica was examined and the rate of dead pests was calculated.

The next test deals with Blattella germanica. The experiment in a line: Test Example 3: filter paper/sucrose bait test against German cockroach imagoes. Conditions: Blattella germanica, 144 h, read-out: rate of dead pests. The protocol: On the bottom of a polyethylene cup having a diameter of 5.5 cm, a filter paper having the same diameter was laid, and 0.7 ml of the above test solution was added dropwise on the filter paper, followed by putting 30 mg of sucrose on it uniformly as a bait. Two male Blattella germanica imagoes were set free in the polyethylene cup and covered it with a lid. After 6 days, the number of surviving and dead Blattella germanica was examined and the rate of dead pests was calculated.

Where [1] appears, read: active ingredient concentration 3.5 ppm in water, twenty last-instar larvae, after one day.
The mark [2] stands for this setting: 500 ppm test solution, 0.7 ml on filter paper with 30 mg sucrose, ten female imagoes, after 24 hours.
Setting [3] is: 500 ppm test solution, 0.7 ml on filter paper with 30 mg sucrose, two male imagoes, after 6 days.

Where two headings read alike, the source gives them in different places.

On to `N#CC(Cl)(CCC(F)(F)C(F)(F)F)S(=O)(=O)CCC(F)(F)F` (stereo not drawn) [(21)], for which, in the test on Culex pipiens pallens (setting [1]), the pest or weed control at 3.5 ppm is ≥ 90%. Also, the pest or weed control at 500 ppm was ≥ 70% in the test on Musca domestica (setting [2]) and 100% in the test on Blattella germanica (setting [3]).

On to `COC(=O)C(CCC(F)(F)C(F)(F)F)S(=O)(=O)CCC(F)(F)F` (stereo not drawn) [(23)], for which, in the test on Culex pipiens pallens (setting [1]), the pest or weed control at 3.5 ppm was ≥ 90%. Also, the pest or weed control at 500 ppm in the test on Musca domestica (setting [2]) was ≥ 70%; in the test with Blattella germanica (setting [3]) it was 100%.

As for `COC(=O)C(C)(CCC(F)(F)C(F)(F)F)S(=O)(=O)CCC(F)(F)F` (stereo not drawn) [(26)], in the test with Culex pipiens pallens (setting [1]), the pest or weed control at 3.5 ppm is ≥ 90%. Moreover, the pest or weed control at 500 ppm in the test on Musca domestica (setting [2]) was ≥ 70%; in the test with Blattella germanica (setting [3]), 100%.

As to `COC(=O)C(F)(CCC(F)(F)C(F)(F)F)S(=O)(=O)CCC(F)(F)F` (stereo not drawn) [(29)], in the test on Culex pipiens pallens (setting [1]), the pest or weed control at 3.5 ppm is ≥ 90%. The pest or weed control at 500 ppm is ≥ 70% in the test on Musca domestica (setting [2]) and 100% in the test on Blattella germanica (setting [3]).

For the compound `COC(=O)C(C)(CCC(F)(F)C(F)(F)F)S(=O)(=O)CCC(F)(F)C(F)(F)F` (stereo not drawn) [(30)], the pest or weed control at 3.5 ppm in the test on Culex pipiens pallens (setting [1]) is ≥ 90%. In addition, the pest or weed control at 500 ppm with Musca domestica (setting [2]) was ≥ 70%; in the test with Blattella germanica (setting [3]), 100%.

Take `NC(=O)C(CCC(F)(F)C(F)(F)F)S(=O)(=O)CCC(F)(F)F` (stereo not drawn) [(31)]: the pest or weed control at 3.5 ppm in the test with Culex pipiens pallens (setting [1]) was ≥ 90%. Besides, the pest or weed control at 500 ppm in the test with Musca domestica (setting [2]) is ≥ 70%; in the test on Blattella germanica (setting [3]), 100%.

On to `CNC(=O)C(CCC(F)(F)C(F)(F)F)S(=O)(=O)CCC(F)(F)F` (stereo not drawn) [(32)], for which the pest or weed control at 3.5 ppm with Culex pipiens pallens (setting [1]) is ≥ 90%. Also, the pest or weed control at 500 ppm with Musca domestica (setting [2]) is ≥ 70%; with Blattella germanica (setting [3]), 100%.

`CN(C)C(=O)C(CCC(F)(F)C(F)(F)F)S(=O)(=O)CCC(F)(F)F` (stereo not drawn) [(33)]: in the test on Culex pipiens pallens (setting [1]), the pest or weed control at 3.5 ppm was ≥ 90%. Also, the pest or weed control at 500 ppm is ≥ 70% in the test with Musca domestica (setting [2]) and 100% in the test with Blattella germanica (setting [3]).

On to `CC(CCC(F)(F)C(F)(F)F)(C(N)=O)S(=O)(=O)CCC(F)(F)F` (stereo not drawn) [(34)], for which the pest or weed control at 3.5 ppm with Culex pipiens pallens (setting [1]) is ≥ 90%. Further, the pest or weed control at 500 ppm is ≥ 70% in the test with Musca domestica (setting [2]) and 100% with Blattella germanica (setting [3]).

In the case of `CNC(=O)C(C)(CCC(F)(F)C(F)(F)F)S(=O)(=O)CCC(F)(F)F` (stereo not drawn) [(35)], the pest or weed control at 3.5 ppm in the test with Culex pipiens pallens (setting [1]) was ≥ 90%. Further, the values for the pest or weed control at 500 ppm in the test with Musca domestica (setting [2]) and in the test with Blattella germanica (setting [3]) were ≥ 70% and 100%, respectively.

Take `CN(C)C(=O)C(C)(CCC(F)(F)C(F)(F)F)S(=O)(=O)CCC(F)(F)F` (stereo not drawn) [(36)]: the pest or weed control at 3.5 ppm in the test on Culex pipiens pallens (setting [1]) was ≥ 90%. In addition, the pest or weed control at 500 ppm was ≥ 70% in the test on Musca domestica (setting [2]) and 100% in the test with Blattella germanica (setting [3]).

For `CCNC(=O)C(C)(CCC(F)(F)C(F)(F)F)S(=O)(=O)CCC(F)(F)F` (stereo not drawn) [(37)], the pest or weed control at 3.5 ppm with Culex pipiens pallens (setting [1]) was ≥ 90%. For the same compound, the results for the pest or weed control at 500 ppm with Musca domestica (setting [2]) and in the test on Blattella germanica (setting [3]) were ≥ 70% and 100%, respectively.

In the case of `CCC(CCC(F)(F)C(F)(F)F)(C(N)=O)S(=O)(=O)CCC(F)(F)F` (stereo not drawn) [(38)], the pest or weed control at 3.5 ppm in the test with Culex pipiens pallens (setting [1]) was ≥ 90%. The pest or weed control at 500 ppm is ≥ 70% in the test with Musca domestica (setting [2]) and 100% in the test on Blattella germanica (setting [3]).

As to `N#CC(CCCC(F)(F)F)S(=O)(=O)CCC(F)(F)F` (stereo not drawn) [(39)], the pest or weed control at 3.5 ppm in the test with Culex pipiens pallens (setting [1]) is ≥ 90%. Also, the pest or weed control at 500 ppm is ≥ 70% in the test with Musca domestica (setting [2]) and 100% in the test with Blattella germanica (setting [3]).

Turning to `CCCNC(=O)C(C)(CCC(F)(F)C(F)(F)F)S(=O)(=O)CCC(F)(F)F` (stereo not drawn) [(40)], the pest or weed control at 3.5 ppm in the test on Culex pipiens pallens (setting [1]) was ≥ 90%. The pest or weed control at 500 ppm with Musca domestica (setting [2]) is ≥ 70%; in the test with Blattella germanica (setting [3]), 100%.

`CC(C)NC(=O)C(C)(CCC(F)(F)C(F)(F)F)S(=O)(=O)CCC(F)(F)F` (stereo not drawn) [(41)]: in the test on Culex pipiens pallens (setting [1]), the pest or weed control at 3.5 ppm was ≥ 90%. Further, the pest or weed control at 500 ppm in the test on Musca domestica (setting [2]) is ≥ 70%; in the test on Blattella germanica (setting [3]) it was 100%.

Regarding `CC(C#N)(CCCC(F)(F)F)S(=O)(=O)CCC(F)(F)F` (stereo not drawn) [(45)], in the test on Culex pipiens pallens (setting [1]), the pest or weed control at 3.5 ppm is ≥ 90%. Moreover, the figures for the pest or weed control at 500 ppm in the test with Musca domestica (setting [2]) and in the test on Blattella germanica (setting [3]) were ≥ 70% and 100%, respectively.

With `CCOC(=O)C(C)(CCC(F)(F)C(F)(F)F)S(=O)(=O)CCC(F)(F)F` (stereo not drawn) [(46)], in the test with Culex pipiens pallens (setting [1]), the pest or weed control at 3.5 ppm was ≥ 90%. For the same compound, the pest or weed control at 500 ppm is ≥ 70% with Musca domestica (setting [2]) and 100% in the test on Blattella germanica (setting [3]).

Consider `CC(CCC(F)(F)C(F)(F)F)(C(N)=S)S(=O)(=O)CCC(F)(F)F` (stereo not drawn) [(49)], for which, in the test with Culex pipiens pallens (setting [1]), the pest or weed control at 3.5 ppm was ≥ 90%. Moreover, the pest or weed control at 500 ppm is ≥ 70% in the test on Musca domestica (setting [2]) and 100% with Blattella germanica (setting [3]).

As to `CC(C#N)(CCC(F)(F)C(F)(F)F)SCCC(F)(F)F` (stereo not drawn) [(50)], the pest or weed control at 3.5 ppm in the test on Culex pipiens pallens (setting [1]) is ≥ 90%. For the same compound, the pest or weed control at 500 ppm in the test on Musca domestica (setting [2]) was ≥ 70%; with Blattella germanica (setting [3]) it was 100%.

In the case of `COC(=O)C(C)(CCC(F)(F)C(F)(F)C(F)(F)F)S(=O)(=O)CCC(F)(F)C(F)(F)F` (stereo not drawn) [(52)], in the test with Culex pipiens pallens, the pest or weed control at 3.5 ppm was ≥ 90%. Also, the pest or weed control at 500 ppm in the test on Musca domestica (24 h) is ≥ 70%; in the test on Blattella germanica, 100%.

On to `N#CC(CCC(F)(F)F)S(=O)(=O)CCC(F)(F)C(F)(F)F` (stereo not drawn) [(53)], for which the pest or weed control at 3.5 ppm in the test with Culex pipiens pallens (setting [1]) was ≥ 90%. Besides, the pest or weed control at 500 ppm in the test with Musca domestica (setting [2]) is ≥ 70%; in the test with Blattella germanica (setting [3]) it was 100%.

Consider `CC(CCC(F)(F)C(F)(F)C(F)(F)F)(C(N)=O)S(=O)(=O)CCC(F)(F)C(F)(F)F` (stereo not drawn) [(56)], for which the pest or weed control at 3.5 ppm in the test with Culex pipiens pallens was ≥ 90%. Moreover, the pest or weed control at 500 ppm in the test with Musca domestica (24 h) is ≥ 70%; in the test with Blattella germanica, 100%.

Consider `CC(C#N)(CCC(F)(F)C(F)(F)F)[S+]([O-])CCC(F)(F)F` (stereo not drawn) [(57)], for which the pest or weed control at 3.5 ppm with Culex pipiens pallens (setting [1]) was ≥ 90%. Besides, the results for the pest or weed control at 500 ppm with Musca domestica (setting [2]) and with Blattella germanica (setting [3]) were ≥ 70% and 100%, respectively.

Take `COC(=O)C(Cl)(CCC(F)(F)C(F)(F)F)S(=O)(=O)CCC(F)(F)F` (stereo not drawn) [(58)]: the pest or weed control at 3.5 ppm in the test with Culex pipiens pallens (setting [1]) is ≥ 90%. Moreover, the figures for the pest or weed control at 500 ppm in the test on Musca domestica (setting [2]) and in the test with Blattella germanica (setting [3]) were ≥ 70% and 100%, respectively.

As to `NC(=O)C(Cl)(CCC(F)(F)C(F)(F)F)S(=O)(=O)CCC(F)(F)F` (stereo not drawn) [(59)], in the test with Culex pipiens pallens (setting [1]), the pest or weed control at 3.5 ppm was ≥ 90%. Further, the pest or weed control at 500 ppm with Musca domestica (setting [2]) was ≥ 70%; in the test on Blattella germanica (setting [3]) it was 100%.

Consider `NC(=O)C(CCC(F)(F)C(F)(F)F)S(=O)(=O)CCC(F)(F)C(F)(F)F` (stereo not drawn) [(60)], for which the pest or weed control at 3.5 ppm in the test on Culex pipiens pallens (setting [1]) was ≥ 90%. In addition, the pest or weed control at 500 ppm in the test with Musca domestica (setting [2]) is ≥ 70%; in the test with Blattella germanica (setting [3]), 100%.

Take `CC(CCC(F)(F)C(F)(F)F)(C(N)=O)S(=O)(=O)CCC(F)(F)C(F)(F)F` (stereo not drawn) [(61)]: the pest or weed control at 3.5 ppm in the test on Culex pipiens pallens (setting [1]) was ≥ 90%. The pest or weed control at 500 ppm with Musca domestica (setting [2]) is ≥ 70%; in the test with Blattella germanica (setting [3]), 100%.

As for `COC(=O)C(CCC(F)(F)C(F)(F)F)[S+]([O-])CCC(F)(F)F` (stereo not drawn) [(63)], the pest or weed control at 3.5 ppm in the test with Culex pipiens pallens (setting [1]) is ≥ 90%. The pest or weed control at 500 ppm with Musca domestica (setting [2]) is ≥ 70%; with Blattella germanica (setting [3]) it was 100%.

Take `COC(=O)C(Br)(CCC(F)(F)C(F)(F)F)S(=O)(=O)CCC(F)(F)F` (stereo not drawn) [(65)]: in the test on Culex pipiens pallens (setting [1]), the pest or weed control at 3.5 ppm was ≥ 90%. The results for the pest or weed control at 500 ppm with Musca domestica (setting [2]) and in the test on Blattella germanica (setting [3]) were ≥ 70% and 100%, respectively.

Take `NC(=O)C(F)(CCC(F)(F)C(F)(F)F)S(=O)(=O)CCC(F)(F)C(F)(F)C(F)(F)F` (stereo not drawn) [(67)]: in the test with Culex pipiens pallens, the pest or weed control at 3.5 ppm is ≥ 90%. The pest or weed control at 500 ppm was ≥ 70% in the test with Musca domestica (24 h) and 100% in the test on Blattella germanica.

Regarding `COC(=O)C(C)(CCC(F)(F)C(F)(F)F)SCCC(F)(F)F` (stereo not drawn) [(68)], the pest or weed control at 3.5 ppm with Culex pipiens pallens (setting [1]) is ≥ 90%. In addition, the pest or weed control at 500 ppm with Musca domestica (setting [2]) was ≥ 70%; in the test with Blattella germanica (setting [3]), 100%.

Values taken from patent publication US8017656B2, “Organic sulfur compounds and use thereof” (Sumitomo Chemical Company, Limited, priority 2005, dated 2011).
